Data reported in patent US20230339882A1, “SHP2 INHIBITOR AND COMPOSITION AND APPLICATION THEREOF” (Betta Pharmaceuticals Co., Ltd., priority 2020, published 2023).
Read-outs that look alike come from different tables or passages of the source.

How the values were obtained:
hERG potassium channel = hERG potassium channel (Homo sapiens (Human), UniProt Q12809); assay: Patch clamp experiments on the hERG ion channel (HEK293 cells overexpressing hERG)
Procedure: Example C Patch Clamp Experiments to Assess the Effects of Compounds on the hERG Ion Channel
Dilute the test sample diluent in sequence with extracellular fluid to prepare detection solutions with final concentrations of 0.3 µM, 1 µM, 3 µM, 10 µM and 30 µM. The solubility of the samples to be tested was visually checked.
The cell line was derived from HEK293 cells and cultured in a 37° C., 5% CO2 incubator. In order to prevent cell senescence caused by contact inhibition, when the cell culture confluence should not exceed 80%, the cells should be passaged every ¾ days, and the inoculation density of each T175 flask should be 2*106 cells. Pre-wash with Phosphate Buffered Saline (PBS), then trypsin/EDTA for 2-3 minutes, stop digestion by adding cell culture medium, and transfer to a new culture bottle.
HEK293 cells overexpressing the hERG potassium channel were cultured overnight at a cell density below 50%. Experimental cells were transferred to a cell bath embedded in an inverted microscope stage(Diaphot, Nikon) and perfused with extracellular fluid. The extracellular fluid contained 130 mM NaCl, 4 mM KCl, 1.8 mM CaCl2, 1 mM MgCl2, 10 mM glucose and 10 mM HEPES (pH 7.4 with NaOH) at a perfusion rate of 4 ml/min. The inner tube contains 130 mM KCl, 1 mM MgCl2, 5 mM EGTA, 5 mM MgATP and 10 mM HEPES (pH 7.2 with KOH). Membrane currents were recorded using a HEKA EPC-10 patch-clamp amplifier and [sequence] acquisition system (HEKA Instruments Inc., D-67466 Lambrecht, Pfalz, Germany). All experiments were done at room temperature (22-23° C.).
Electrodes (BF150-86-10) were straightened during the experiments using a P-97 microelectrode puller (Sutter Instrument Company, One Digital Drive, Novato, CA 94949). The inner diameter of the electrode is 1-1.5 mm, and the water entry resistance after filling with internal liquid is 2-4 MΩ.
When the whole-cell seal is formed, wait for the current to stabilize for 2 minutes (the current decay is less than 5% within 5 minutes, and the tail current value is greater than500 pA). At this time, the peak value of the tail current is the control current value. The extracellular fluid containing the drug to be tested is then perfused. The same procedure was repeated 3-5 times, exposing each cell to 4-6 increasing concentrations of compounds. Blocking and deactivation of hERG during compound exposure and washout were continuously recorded.
When the whole-cell seal was formed, the cell membrane voltage was clamped at -80 mV, depolarized for 2 seconds every 12 seconds, and the clamping voltage was depolarized from -80 mV to -50 mV under a 5-second repolarization pulse of -50 mV. Measure the peak tail current.
Peak hERG tail currents were measured under a 5 s repolarization pulse of -50 mV. Each drug concentration was plotted against the current inhibition rate as a function of the logarithm of the compound concentration. The following Hill equation was used to fit a concentration-response curve to fit IC50.
Y: test value; Bottom: the lowest test value (0); Top: the highest test value (1); Hillcoefficient: the maximum absolute value of the slope of the curve.
Data are presented as mean ± standard deviation.

[1] = test system: lung cancer cells NCI-H358; assay: Cell proliferation assay, CELL TITER-GLO (CTG) luminescence, NCI-H358; format: cell-based; settings: cultured for 96 hrs
Summary of the method: (§1)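 NCI-H358 (2000 cells/well, ultra-low-attachment plates) and MV-4-11 cells were dosed 24 h after seeding at 1000 nM down to 0.1524 nM (3-fold steps). Viable-cell ATP was read by CellTiter-Glo luminescence after 96 h for NCI-H358 and 120 h for MV-4-11. IC50 came from a variable-slope fit of inhibition versus the 0 nM control.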

SHP2 = SHP2 (Homo sapiens (Human), UniProt Q06124); assay: SHP2 allosteric inhibitory enzyme activity assay (DiFMUP fluorescence); format: biochemical; settings: read-out: SHP2 enzymatic activity IC50
Summary of the method: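 Human SHP2 (0.2 ng) preincubated 1 h at room temperature with 25 µM activating peptide IRS1_pY1172(dPEG8)pY1222 and compound (10-point series from 10 µM) in HEPES/NaCl/KCl/BRIJ-35/EDTA/DTT buffer. DiFMUP then added for 1 h; fluorescence at ex 340/em 450 nm, normalized to no-enzyme and no-inhibitor controls, IC50 from variable-slope fit.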

leukemia cells MV-4-11 = assay: Cell proliferation assay, CELL TITER-GLO (CTG) luminescence, MV-4-11; format: cell-based
Summary of the method: as §1

[2] = In vitro metabolic stability in liver microsomes, mouse; format: in vitro ADME; settings: for microsomal CLint at 2 µM: pH 7.3, read-out: CLint (µL/min/mg protein) mouse
[3] = In vitro metabolic stability in liver microsomes, rat; format: in vitro ADME; settings: for microsomal CLint at 2 µM: pH 7.3, read-out: CLint (µL/min/mg protein) rat
Procedure: (§2) Example D: In Vitro Metabolic Stability of Human and Rat Liver Microsomes Test Buffer Preparation
(§3) Dissolve 1900 mg of MgCl2 in 400 mL of ultrapure water.
(§4) Dissolve 17.42 g K2HPO4 and 13.65 g KH2PO4 into 1000 mL of ultrapure water, respectively. Mix a certain proportion of K2HPO4 and KH2PO4 to adjust the pH to 7.30 ± 0.10.
(§5) Prepare a solution of 10 ng/mL labetalol and 10 ng/mL glyburide in acetonitrile and store at 4° C.
(§6) Prepare 10 mM verapamil (positive control) and test article stock solutions in DMSO. Then, with MeOH/ACN/H2O solution (1:1:2 by volume), diluted to 50 µM and 200 µM working solutions, respectively.
(§7) experiment procedure: • 1) Add 40 µL MgCl2 and 306 µL PBS to 96 wells (set blank control group, positive control group, test compound sample group, and negative control group at the same time) • 2) Add 4 µL of compound working solution to each well (4 µL of PBS buffer for blank group) (Note: the final concentration of DMSO volume in the system is ≤ 0.5%) • 3) Add 10 µL of liver microsomes (concentration: 20 mg/mL) to each well, mix well, and pre-incubate at 37° C. for 10 minutes. • 4) Add 40 µL of 10 mM NADPH working solution to each well to start the reaction (add equal volume of PBS buffer for blank control group and negative control group respectively), the total reaction volume is 400 µL. • 5) Take out 50 µL samples from the above reaction solution at 0, 5, 15, and 45 minutes, and add 400 µL of reaction stop solution to stop the reaction • 6) Shake the sample after the termination of the reaction on a shaker for 5 minutes. • 7) Centrifuge the sample at 3200 rcf for 10 minutes. After the centrifugation is complete, transfer 50 µL of the supernatant to 200 µL of H2O for dilution for LC-MS/MS analysis.
(§8) Calculations of t½ and CLint are performed using the first-order kinetic equations: […]
(§9) where k represents the elimination constant, calculated from a log-linear plot of percentage remaining versus time. t½ represents half-life. Cprotein is the concentration of liver microsomes.

[4] = In vitro metabolic stability in liver microsomes, dog; format: in vitro ADME; settings: for microsomal CLint at 2 µM: dog, microsomes, pH 7.3; for CLint (µL/min/mg protein) dog: dog liver microsomes
[5] = In vitro metabolic stability in liver microsomes, human; format: in vitro ADME; settings: for microsomal CLint at 2 µM: pH 7.3, read-out: CLint (µL/min/mg protein) human
Procedure: as §2, §3, §4, §5, §6, §7, §8, §9

[6] = In vitro metabolic stability in liver microsomes, monkey; format: in vitro ADME; settings: for microsomal CLint at 2 µM: pH 7.3, read-out: CLint (µL/min/mg protein) monkey
[7] = read-out: hERG, patch clamp, peak tail current, HEK293
[8] = Homo sapiens, NCI-H358, ultra-low adsorption plate
[9] = Homo sapiens, MV4-11, cultured for 120 hrs

hERG potassium channel, sequence (Q12809 whole entry): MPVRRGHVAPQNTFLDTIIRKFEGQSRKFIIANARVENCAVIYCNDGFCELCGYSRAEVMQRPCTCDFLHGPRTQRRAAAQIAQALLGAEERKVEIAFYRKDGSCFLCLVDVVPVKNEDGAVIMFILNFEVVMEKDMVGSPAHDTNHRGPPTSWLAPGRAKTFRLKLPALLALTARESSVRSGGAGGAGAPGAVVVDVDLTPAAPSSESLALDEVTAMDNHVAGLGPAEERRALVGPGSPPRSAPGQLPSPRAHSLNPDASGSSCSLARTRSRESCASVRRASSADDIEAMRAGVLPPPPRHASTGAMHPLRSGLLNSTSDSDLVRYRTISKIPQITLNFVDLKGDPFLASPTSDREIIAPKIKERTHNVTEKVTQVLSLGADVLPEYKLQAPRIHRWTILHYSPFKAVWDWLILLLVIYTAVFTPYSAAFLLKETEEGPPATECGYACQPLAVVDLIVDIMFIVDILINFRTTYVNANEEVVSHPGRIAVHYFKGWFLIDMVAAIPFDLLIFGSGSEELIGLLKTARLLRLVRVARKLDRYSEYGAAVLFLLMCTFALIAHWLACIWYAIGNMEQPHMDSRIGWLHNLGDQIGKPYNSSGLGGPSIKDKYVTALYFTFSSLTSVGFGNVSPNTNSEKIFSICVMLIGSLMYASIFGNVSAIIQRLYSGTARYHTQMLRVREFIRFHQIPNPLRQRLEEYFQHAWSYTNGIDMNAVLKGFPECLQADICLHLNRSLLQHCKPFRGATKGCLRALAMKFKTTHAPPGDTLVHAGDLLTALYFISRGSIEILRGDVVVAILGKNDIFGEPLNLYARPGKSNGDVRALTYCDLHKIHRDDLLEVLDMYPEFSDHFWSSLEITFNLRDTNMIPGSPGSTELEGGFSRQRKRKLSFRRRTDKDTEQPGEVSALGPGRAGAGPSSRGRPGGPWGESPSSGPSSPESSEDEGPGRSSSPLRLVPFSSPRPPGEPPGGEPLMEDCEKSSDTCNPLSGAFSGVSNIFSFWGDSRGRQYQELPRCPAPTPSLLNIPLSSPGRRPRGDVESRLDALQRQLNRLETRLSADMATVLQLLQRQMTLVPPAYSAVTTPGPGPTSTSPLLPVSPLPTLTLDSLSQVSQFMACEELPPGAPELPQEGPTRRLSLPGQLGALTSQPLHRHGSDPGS
SHP2, sequence (Q06124 whole entry): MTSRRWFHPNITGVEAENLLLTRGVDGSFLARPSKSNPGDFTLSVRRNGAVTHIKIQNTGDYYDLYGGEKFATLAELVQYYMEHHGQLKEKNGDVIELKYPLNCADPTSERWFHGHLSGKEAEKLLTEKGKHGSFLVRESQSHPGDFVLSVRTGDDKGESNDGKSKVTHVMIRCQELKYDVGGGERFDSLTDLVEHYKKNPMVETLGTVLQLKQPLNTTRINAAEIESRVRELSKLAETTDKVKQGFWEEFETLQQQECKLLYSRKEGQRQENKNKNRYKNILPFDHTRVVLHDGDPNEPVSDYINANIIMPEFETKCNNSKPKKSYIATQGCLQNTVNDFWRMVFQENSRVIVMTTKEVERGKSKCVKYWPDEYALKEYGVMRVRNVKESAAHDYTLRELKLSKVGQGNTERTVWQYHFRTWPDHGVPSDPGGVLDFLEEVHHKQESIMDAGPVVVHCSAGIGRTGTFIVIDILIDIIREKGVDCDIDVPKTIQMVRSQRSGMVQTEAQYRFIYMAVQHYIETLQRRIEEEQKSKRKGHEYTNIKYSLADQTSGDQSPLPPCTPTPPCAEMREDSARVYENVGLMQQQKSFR

Row | Structure (SMILES) | IC50 (hERG potassium channel; [7]) | IC50 ([1]; ultra-low adsorption plate) | IC50 (SHP2) | IC50 (leukemia cells MV-4-11; cultured for 120 hrs) | microsomal CLint at 2 µM [2] | microsomal CLint at 2 µM [3] | microsomal CLint at 2 µM [4] | IC50 [1, 8] | microsomal CLint at 2 µM [5] | IC50 (leukemia cells MV-4-11; [9]) | microsomal CLint at 2 µM [6] | CLint (µL/min/mg protein) mouse [2] | CLint (µL/min/mg protein) rat [3] | CLint (µL/min/mg protein) dog [4] | CLint (µL/min/mg protein) human [5] | CLint (µL/min/mg protein) monkey [6] | IC50 (hERG potassium channel)
1 | CP(C)(=O)c1ccc(OCC#Cc2cnc(N3CCC4(CC3)Cc3ccccc3[C@H]4N)c(CO)n2)cc1 [Compound A57] | > 20000 nM | 22 nM | 4.3 nM | 10 nM | – | – | – | – | – | – | – | – | – | – | – | – | –
2 | NC(=O)c1cccc(OCC#Cc2cnc(N3CCC4(CC3)Cc3ccccc3[C@H]4N)c(CO)n2)c1 [Compound A27, (S)-3-((3-(5-(1-amino-1,3-dihydrospiro[indene-2,4′-piperidine]-1′-yl)-6-(hydroxymethyl)pyrazin-2-yl)prop-2-yn-1-yl)oxy)benzamide] | – | – | 1.9 nM | – | 17.7 µL/min/mg | 7.5 µL/min/mg | 4.8 µL/min/mg | 1.5 nM | 4 µL/min/mg | 1.4 nM | 15.9 µL/min/mg | – | – | – | – | – | –
3 | N[C@@H]1c2ccccc2CC12CCN(c1ncc(C#CCOc3ccc(S(N)(=O)=O)cc3)nc1CO)CC2 [Compound A32, (S)-4-((3-(5-(1-amino-1,3-dihydrospiro[indene-2,4′-piperidin]-1′-yl)-6-(hydroxymethy 1)pyrazin-2-yl)prop-2-yn-1-yl)oxy)benzenesulfonamide] | > 20000 nM | 9 nM | 1.3 nM | 3.4 nM | – | – | – | – | – | – | – | 10.6 µL/min/mg protein | 14.7 µL/min/mg protein | 1.9 µL/min/mg protein | 2.2 µL/min/mg protein | 10.1 µL/min/mg protein | –
4 | N[C@@H]1c2ccccc2CC12CCN(c1ncc(C#CCNC(=O)c3ccccc3)nc1CO)CC2 [Compound A45] | – | 40 nM | 4.7 nM | 20 nM | – | – | – | – | – | – | – | 6.3 µL/min/mg protein | 7.9 µL/min/mg protein | 9.6 µL/min/mg protein | 5.2 µL/min/mg protein | 3.2 µL/min/mg protein | –
5 | N[C@@H]1c2ccccc2CC12CCN(c1ncc(C#CCOc3ccc4c(c3)NC(=O)CC4)nc1CO)CC2 [Compound A22] | – | 2.3 nM | 4.6 nM | 2.9 nM | – | – | – | – | – | – | – | 13.2 µL/min/mg protein | 20.7 µL/min/mg protein | 13.6 µL/min/mg protein | 1.6 µL/min/mg protein | 21.0 µL/min/mg protein | –
6 | N[C@@H]1c2ccccc2CC12CCN(c1ncc(C#CCOc3ccncc3)nc1CO)CC2 [Compound A18, (S) - (3-(1-amino-1,3-dihydrospiro [indene-2,4′-piperidine]-1′-yl)-6-(3-(pyridin-4-oxy)prop-1-yn-1-yl)pyrazin-2-yl) methanol] | – | – | 35 nM | – | – | – | – | – | – | – | – | – | – | – | – | – | > 20000 nM
7 | NC(=O)c1ccc(OCC#Cc2cnc(N3CCC4(CC3)Cc3ccccc3[C@H]4N)c(CO)n2)cc1Cl [Compound A54, (S)-4-((3-(5-(1-amino-1,3-dihydrospiro[indene-2,4′-piperidin]-1′-yl)-6-(hydroxymethyl)pyrazin-2-yl)prop-2-yn-1-yl)oxy)-2-chlorobenzamide] | – | – | 0.7 nM | – | 10.4 µL/min/mg | 12.8 µL/min/mg | 12.8 µL/min/mg | 2.2 nM | 12.1 µL/min/mg | 1.6 nM | 13.7 µL/min/mg | – | – | – | – | – | –
8 | NC(=O)Cc1cccc(OCC#Cc2cnc(N3CCC4(CC3)Cc3ccccc3[C@H]4N)c(CO)n2)c1 [Compound A59, (S)-2-(3-((3-(5-(1-amino-1,3-dihydrospiro[indene-2,4′-piperidin]-1′-yl)-6-(hydroxymethyl)pyrazin-2-yl)prop-2-yn-1-yl)oxy)phenyl)acetamide] | – | – | 1.1 nM | – | 16.8 µL/min/mg | 16.2 µL/min/mg | 14.9 µL/min/mg | 5.8 nM | 10.7 µL/min/mg | 1 nM | 15.9 µL/min/mg | – | – | – | – | – | 26000 nM
9 | Nc1cc(OCC#Cc2cnc(N3CCC4(CC3)Cc3ccccc3[C@H]4N)c(CO)n2)ccn1 [Compound A26, (S)-(3-(1-amino-1,3-dihydrospiro [indene-2,4′-piperidine]-1′-yl)-6-(3-((2-Aminopyridin-4-yl)oxy)prop-1-yn-1-yl)pyrazin-2-yl) methanol] | – | – | 1.6 nM | – | 9.8 µL/min/mg | 9 µL/min/mg | 1.2 µL/min/mg | 5.2 nM | 2.2 µL/min/mg | 1.8 nM | 6.3 µL/min/mg | – | – | – | – | – | –
10 | NC(=O)Cc1ccc(OCC#Cc2cnc(N3CCC4(CC3)Cc3ccccc3[C@H]4N)c(CO)n2)cc1 [Compound A71, (S)-2-(4-((3-(5-(1-amino-1,3-dihydrospiro[indene-2,4′-piperidin]-1′-yl)-6-(hydroxylmethyl)pyrazin-2-yl)prop-2-yn-1-yl)oxy)phenyl)ace tamide] | – | – | 2.9 nM | – | – | – | – | 4.3 nM | – | 2.3 nM | – | – | – | – | – | – | > 20000 nM
11 | NC(=O)c1ccc(OCC#Cc2cnc(N3CCC4(CC3)Cc3ccccc3[C@H]4N)c(CO)n2)cc1 [Compound A17, (S)-4-((3-(5-(1-amino-1,3-dihydrospiro[indene-2,4′-piperidine]-1′-yl)-6-(hydroxymethyl)pyrazin-2-yl)prop-2-yn-1-yl)oxy) benzamide] | – | 1.5 nM | 2.4 nM | 1 nM | – | – | – | – | – | – | – | 12.0 µL/min/mg protein | 15.9 µL/min/mg protein | 10.6 µL/min/mg protein | 0.4 µL/min/mg protein | 5.0 µL/min/mg protein | –
12 | CC(=O)Nc1cccc(OCC#Cc2cnc(N3CCC4(CC3)Cc3ccccc3[C@H]4N)c(C(N)=O)n2)c1 [Compound A41] | > 20000 nM | – | 14 nM | – | – | – | – | – | – | – | – | – | – | – | – | – | –
13 | N[C@@H]1c2ccccc2CC12CCN(c1ncc(C#CCNc3ncco3)nc1CO)CC2 [Compound A60] | – | 41 nM | 1.6 nM | 13 nM | – | – | – | – | – | – | – | 15.1 µL/min/mg protein | 10.4 µL/min/mg protein | 10.8 µL/min/mg protein | 9.9 µL/min/mg protein | 16.9 µL/min/mg protein | –
